In patent US20200165194A1, “ADDITIVE COMPOSITION FOR CULTURE MEDIUM, ADDITIVE COMPOUND FOR CULTURE MEDIUM, AND METHOD FOR CULTURE OF CELLS OR TISSUE USING SAME” (NISSAN CHEMICAL CORPORATION, priority 2017, published 2020):
Where two headings read alike, the source gives them in different places.

Columns and labels:
[1] = test system: SKOV3 cells (human ovarian cancer-derived cell line); test: Cell proliferation activity in three-dimensional medium FCeM, ATP assay (Experimental Example 1); format: cell-based; details: SKOV3, 3D medium FCeM, 4 days, DMSO control = 100%, average of two tests; for proliferation rate (%): compound 5 μM
Description: A cell proliferation promoting effect when the compound to be used in the present invention was added to a three-dimensional medium was studied. Specifically, precultured (adhesion cultured) SKOV3 cells (human ovarian cancer-derived cell line) were recovered and suspended in a three-dimensional cell culture medium (“FCeM (registered trade mark)” (Nissan chemical corporation)) to prepare a cell suspension. […] The cell suspension seeded in the plate was stood overnight at 37° C., 5% CO2. Then, a DMSO diluted solution (4.44 μL) of the compound to be used in the present invention was added at a final concentration of 5 μM (or two steps of […] and 10 μM) (no stirring after addition). After addition of each compound, the mixtures were stood for 4 days at 37° C., 5% CO2. […] The luminescence intensity (RLU value) was measured by FlexStation3 (manufactured by Molecular Devices), and cell proliferation was evaluated.
The proliferation rate was calculated based on the control (cells added with DMSO without containing the compound to be used in the present invention) as the standard (100%). The values shown in the tables are average values of the results of two tests.

[2] = test system: human ovarian cancer cell line SKOV3; test: Action on SKOV3 cell-2: 3D (deacylated gellan gum) and 2D culture, EGF medium, ATP assay (Experimental Example 3); details: for relative value of RLU (number of viable cells) / viability at 1 µM / viability at 5 µM / viability at 10 µM / viability at 20 µM: 4 days, compound non-addition = 100%; for viability at 1 µM / viability at 5 µM / viability at 10 µM / viability at 20 µM: Homo sapiens, SK-OV-3, 96 h
Description: According to the method of patent document 1 (WO 2014/017513), a composition of McCoy's 5a medium (manufactured by Sigma-Aldrich) containing 0.015% (w/v) deacylated gellan gum (KELCOGEL CG-LA, manufactured by Sansho Co., Ltd.) and 15% (v/v) FBS, 30 ng/mL human EGF (manufactured by PEPROTECH) was prepared using FCeM-series Preparation Kit (manufactured by Wako Pure Chemical Industries, Ltd.). In a single layer culture, a non-addition medium composition not containing deacylated gellan gum was prepared. Then, human ovarian cancer cell line SKOV3 (manufactured by DS PHARMA BIO MEDICAL) was suspended in the above-mentioned medium composition added with deacylated gellan gum, and dispensed into the wells of a 384 well flat bottom Ultr-low Attachment surface microplate (manufactured by Corning Incorporated, #3827) at 1000 cells/36 μL/well (three-dimensional culture (3D)). In a single layer culture (2D), human ovarian cancer cell line SKOV3 was suspended in the above-mentioned medium composition not containing deacylated gellan gum, and dispensed into the wells of a 384 well flat bottom microplate (manufactured by Corning Incorporated, #3712) at 400 cells/36 μL per well. After dispensing, the compound to be used in the present invention dissolved in dimethyl sulfoxide (DMSO) was added by 4 μL each at a final concentration of 0, 1, 5, 10, 20 μM, and continuously cultured for 4 days. Each plate was cultured in a standing state in a CO2 incubator (37° C., 5% CO2) for 4 days. An ATP reagent (40 μL) (CellTiter-Glo (registered trade mark) Luminescent Cell Viability Assay, manufactured by Promega) was added to the culture medium on day 4, and the mixture was stirred by a plateshaker (manufactured by AS ONE Corporation, Micro plate mixer NS-P) at room temperature for 15 min. The luminescence intensity (RLU value) was measured by EnSpire (manufactured by Perkin Elmer) and the luminescence value of the medium alone was subtracted to measure the number of viable cells.

[3] = single layer culture (2D) of SKOV3 cells
[4] = three-dimensional culture (3D) of SKOV3 cells

Which results are given for `CCOC(=O)C/N=C(\CC)c1ccc(O)c(C)c1O` [k-1:A-1]?
proliferation rate (%) (5 μM) [1]: 119.1%; proliferation rate (%) (10 μM) [1]: 119.4%

With `CC/C(=N\CC(=O)OCc1ccccc1)c1ccc(O)c(C)c1O` [k-1:A-2] as the molecule, how does the “proliferation rate (%) (5 μM)” value [1] read?
The value was 118.8%.

And the “proliferation rate (%) (10 μM)” value [1]?
Its value is 129.4%.

What does the source list for `CCCCCCCC/N=C(\CC)c1ccc(O)c(C)c1O` [k-1:A-3]?
proliferation rate (%) (5 μM) [1]: 118.1%; proliferation rate (%) (10 μM) [1]: 112.6%

How did the “proliferation rate (%) (5 μM)” value [1] turn out when `CC/C(=N\C(=O)Nc1ccccc1)c1ccc(O)c(C)c1O` [k-1:A-5] was run?
Its value is 113%.

What about the “proliferation rate (%) (10 μM)” value [1] of the same molecule?
Its value is 124.3%.

For `CCC(=NNC(=O)CNc1ccc(O)cc1)c1ccc(O)c(C)c1O` [k-1:D-2], which “relative value of RLU (number of viable cells)” value (from here on “relative value of RLU”) ([2]; 2D single layer culture, 1 μM) is on record?
The value was 101%.

And the “relative value of RLU” value ([2]; 2D single layer culture, 5 μM)?
The value was 94%.

What about the “relative value of RLU” value ([2]; 2D single layer culture, 10 μM) of the same molecule?
Its value is 82%.

And the “relative value of RLU” value ([2]; 2D single layer culture, 20 μM)?
Its value is 59%.

And the “relative value of RLU” value ([2]; 3D culture (deacylated gellan gum), 1 μM)?
The value was 116%.

What about the “relative value of RLU” value ([2]; 3D culture (deacylated gellan gum), 5 μM) of the same molecule?
Its value is 129%.

And the “relative value of RLU” value ([2]; 3D culture (deacylated gellan gum), 10 μM)?
Its value is 143%.

And the “relative value of RLU” value ([2]; 3D culture (deacylated gellan gum), 20 μM)?
Its value is 126%.

And the “cell proliferation promoting effect (in words)” value [2, 3]?
The value was “a favorable cell proliferation promoting effect was not observed”.

And the “cell proliferation promoting effect (in words)” value [2, 4]?
The value was “exhibited cell proliferation promoting effect at a wide concentration range”.

How did the “proliferation rate (%)” value [1] turn out when `CCC(=NNC(=O)CNc1ccccc1C)c1ccc(O)c(C)c1O` [k-1:H-2] was run?
Its value is 147.27%.

Which “proliferation rate (%)” value [1] does the source give for `CCC(=NNC(=O)CNc1cccc(C)c1)c1ccc(O)c(C)c1O` [k-1:H-3] here?
Its value is 168.98%.

With `CCC(=NNC(=O)CNc1ccc(C)cc1)c1ccc(O)c(C)c1O` [k-1:H-4] as the molecule, how does the “proliferation rate (%)” value [1] read?
Its value is 105.07%.

Which “proliferation rate (%)” value [1] does the source give for `CCC(=NNC(=O)CNc1ccc(F)cc1)c1ccc(O)c(C)c1O` [k-1:H-5] here?
The value was 154.19%.

Which “proliferation rate (%)” value [1] does the source give for `CCC(=NNC(=O)CNc1cccc2ccccc12)c1ccc(O)c(C)c1O` [k-1:H-6] here?
Its value is 125.68%.

For `CCOc1ccc(NCC(=O)NN=C(CC)c2ccc(O)c(C)c2O)cc1` [k-1:H-9], which “proliferation rate (%)” value [1] is on record?
The value was 95.96%.

`CC/C(=N\NC(=O)OCc1cccc(O)c1)c1ccc(O)c(C)c1O` [k-1:N-1] was tested. Which viability at 1 µM ([2]; read-out: relative value of RLU (number of viable cells), 2D single layer culture, 1 μM) did it give?
The viability at 1 µM was 101%.

And the viability at 5 µM ([2]; read-out: relative value of RLU (number of viable cells), 2D single layer culture, 5 μM)?
Its viability at 5 µM is 94%.

And the viability at 10 µM ([2]; read-out: relative value of RLU (number of viable cells), 2D single layer culture, 10 μM)?
Its viability at 10 µM is 89%.

And the viability at 20 µM ([2]; read-out: relative value of RLU (number of viable cells), 2D single layer culture, 20 μM)?
The viability at 20 µM was 84%.

And the viability at 1 µM ([2]; read-out: relative value of RLU (number of viable cells), 3D culture (deacylated gellan gum), 1 μM)?
Its viability at 1 µM is 101%.

What about the viability at 5 µM ([2]; read-out: relative value of RLU (number of viable cells), 3D culture (deacylated gellan gum), 5 μM) of the same molecule?
The viability at 5 µM was 134%.

What about the viability at 10 µM ([2]; read-out: relative value of RLU (number of viable cells), 3D culture (deacylated gellan gum), 10 μM) of the same molecule?
The viability at 10 µM was 169%.

What about the viability at 20 µM ([2]; read-out: relative value of RLU (number of viable cells), 3D culture (deacylated gellan gum), 20 μM) of the same molecule?
The viability at 20 µM was 186%.

What about the “cell proliferation promoting effect (in words)” value [2, 3] of the same molecule?
Its value is “a favorable cell proliferation promoting effect was not observed”.

What about the “cell proliferation promoting effect (in words)” value [2, 4] of the same molecule?
The value was “exhibited cell proliferation promoting effect at a wide concentration range”.

With `CC(=NNC(=O)CNc1ccccc1)c1ccc(O)c(C)c1O` [k-2:H-1] as the molecule, how does the “proliferation rate (%)” value [1] read?
Its value is 184.61%.

For `CC(=NNC(=O)CNc1ccccc1C)c1ccc(O)c(C)c1O` [k-2:H-2], which “proliferation rate (%)” value [1] is on record?
The value was 131.13%.

How did the “proliferation rate (%)” value [1] turn out when `CC(=NNC(=O)CNc1cccc(C)c1)c1ccc(O)c(C)c1O` [k-2:H-3] was run?
The value was 139.33%.

`CC(=NNC(=O)CNc1ccc(C)cc1)c1ccc(O)c(C)c1O` [k-2:H-4] was tested. Which “proliferation rate (%)” value [1] did it give?
The value was 128.2%.

`CC(=NNC(=O)CNc1ccc(F)cc1)c1ccc(O)c(C)c1O` [k-2:H-5] was tested. Which “proliferation rate (%)” value [1] did it give?
Its value is 158.56%.

`CC(=NNC(=O)CNc1cccc2ccccc12)c1ccc(O)c(C)c1O` [k-2:H-6] was tested. Which “proliferation rate (%)” value [1] did it give?
The value was 116.79%.

Which “proliferation rate (%)” value [1] does the source give for `CCC(Nc1ccccc1)C(=O)NN=C(C)c1ccc(O)c(C)c1O` (stereo not shown) [k-2:H-7] here?
Its value is 201.93%.

For `CCOc1ccc(NCC(=O)NN=C(C)c2ccc(O)c(C)c2O)cc1` [k-2:H-9], which “proliferation rate (%)” value [1] is on record?
Its value is 131.36%.

For `CCC(=NNC(=O)CNc1ccccc1)c1c(O)cc(O)c(C)c1O` [k-3:H-1], which “proliferation rate (%)” value [1] is on record?
Its value is 133.76%.

Which “proliferation rate (%)” value [1] does the source give for `CCC(=NNC(=O)CNc1ccccc1C)c1c(O)cc(O)c(C)c1O` [k-3:H-2] here?
Its value is 117.84%.

With `CCC(=NNC(=O)CNc1cccc(C)c1)c1c(O)cc(O)c(C)c1O` [k-3:H-3] as the molecule, how does the “proliferation rate (%)” value [1] read?
The value was 134.65%.

Which “proliferation rate (%)” value [1] does the source give for `CCC(=NNC(=O)CNc1ccc(C)cc1)c1c(O)cc(O)c(C)c1O` [k-3:H-4] here?
The value was 135.5%.

Which “proliferation rate (%)” value [1] does the source give for `CCC(=NNC(=O)CNc1ccc(F)cc1)c1c(O)cc(O)c(C)c1O` [k-3:H-5] here?
The value was 141.82%.

How did the “proliferation rate (%)” value [1] turn out when `CCC(=NNC(=O)CNc1cccc2ccccc12)c1c(O)cc(O)c(C)c1O` [k-3:H-6] was run?
The value was 134.6%.

Which “proliferation rate (%)” value [1] does the source give for `CCC(=NNC(=O)C(CC)Nc1ccccc1)c1c(O)cc(O)c(C)c1O` (stereo not shown) [k-3:H-7] here?
Its value is 126.34%.

Which “proliferation rate (%)” value [1] does the source give for `CCOc1ccc(NCC(=O)NN=C(CC)c2c(O)cc(O)c(C)c2O)cc1` [k-3:H-9] here?
The value was 129.93%.

`Cc1c(O)ccc(C(CC(C)C)=NNC(=O)CNc2ccccc2)c1O` [k-5:H-1] was tested. Which “proliferation rate (%)” value [1] did it give?
Its value is 148.88%.

For `Cc1ccccc1NCC(=O)NN=C(CC(C)C)c1ccc(O)c(C)c1O` [k-5:H-2], which “proliferation rate (%)” value [1] is on record?
Its value is 133.96%.

For `Cc1cccc(NCC(=O)NN=C(CC(C)C)c2ccc(O)c(C)c2O)c1` [k-5:H-3], which “proliferation rate (%)” value [1] is on record?
The value was 146.44%.

For `Cc1ccc(NCC(=O)NN=C(CC(C)C)c2ccc(O)c(C)c2O)cc1` [k-5:H-4], which “proliferation rate (%)” value [1] is on record?
Its value is 114.76%.

For `Cc1c(O)ccc(C(CC(C)C)=NNC(=O)CNc2ccc(F)cc2)c1O` [k-5:H-5], which “proliferation rate (%)” value [1] is on record?
The value was 145.4%.

`Cc1c(O)ccc(C(CC(C)C)=NNC(=O)CNc2cccc3ccccc23)c1O` [k-5:H-6] was tested. Which “proliferation rate (%)” value [1] did it give?
Its value is 115.2%.

`CCC(Nc1ccccc1)C(=O)NN=C(CC(C)C)c1ccc(O)c(C)c1O` (stereo not shown) [k-5:H-7] was tested. Which “proliferation rate (%)” value [1] did it give?
The value was 130.63%.

Which “proliferation rate (%)” value [1] does the source give for `CCOc1ccc(NCC(=O)NN=C(CC(C)C)c2ccc(O)c(C)c2O)cc1` [k-5:H-9] here?
The value was 38.38%.
